In patent publication US12410124B2 (priority 2019, dated 2025):
Where two headings read alike, the source gives them in different places.

Experiments:
midbrain p-α-s = test: Midbrain p-α-s protein expression in MPTP Parkinson's disease model mouse (western-blotting); assay type: in vivo; details: midbrain total protein, GAPDH internal reference, gavage 21 consecutive days after MPTP modeling
Procedure: (§1) Neurotoxins can be used to establish PD animal models. Currently, 1-methyl-4-phenyl-1,2,3,6-tetrahydropyridine (MPTP) is the sole synthetic toxin which is recognized to induce PD symptoms in human and non-human primates and in mice. Using MPTP subacute modeling method, C57BL/6J male mice were intraperitoneally injected with MPTP 30 mg/kg, once a day for 5 consecutive days. The experiment animals were divided into blank control group, MPTP model group, and compound treatment group. For the […] compound treatment group, the compound was administrated by gavage for 21 consecutive days after the completion of modeling; for the MPTP model group, the normal saline was administrated by gavage for 21 consecutive days after the completion of modeling; and for the blank control group, the normal saline was first intraperitoneally injected for 5 days, and then administrated by gavage for 21 days.
Alpha-synuclein is an “unfolded protein” in its natural state. It exists in a monomeric form, and participates in the physiological functions such as the release of neurotransmitters, the establishment of synaptic junctions, and the regulation of synaptic plasticity. Under pathological conditions, more than 90% of alpha-synuclein is phosphorylated at serine of position 129 and converted into phosphorylated alpha-synuclein (p-α-s), thereby forming Lewy bodies. The formation of Lewy bodies is one of the main pathological manifestations and pathological mechanisms for Parkinson's disease, and plays an important role in the formation and development of PD. The detection of the p-α-s expression in the midbrain and substantia nigra of PD model mice can evaluate the neuroprotective activity of the compound.
(§2) Half of experiment mice in each group were taken to extract the total midbrain protein, and the change in the midbrain P-α-s protein expression was determined by western-blotting using GAPDH as the internal reference. The experiment included blank control group, MPTP model group, positive control group (caffeic acid phenethyl ester, CAPE), prototype control group (styryl sulfone compounds 3B, 3C, 3D, and 3G, whose structures are shown as above), and target compound group.

[1] = system: fetal rat midbrain neurons; test: Survival rate of primary midbrain neurons induced by MPP+ (CCK-8); assay type: cell-based; details: Rattus norvegicus, Neuron, read-out: Survival rate (%)
Description: The main pathological feature of Parkinson's disease (PD) lies in the degeneration and loss of dopaminergic neuron in the substantia nigra-striatum of the midbrain. 1-Methyl-4-phenylpyridinium (MPP+) has a high affinity to dopamine carriers and a selective toxicity on dopaminergic neurons. Thus, MPP+ is one of the most ideal classic neurotoxins for establishing PD cell models. The primary cell culture of fetal rat midbrain is often used to establish PD cell models in recent years. Although it is more cumbersome and has higher technical requirements than cell line culture, it is closer to the pathological characteristics of PD. Thus, a PD cell model is established using neurons from the primary cell culture of fetal rat midbrain under MPP+ induction, to evaluate the protective effect of target compounds on the model neurons.
The midbrain was separated from a fetal rat of a 15-day-pregnant SD rat and cut into pieces, then subjected to trypsin digestion, pipetting, screen filtration, and resuspension steps, and inoculated in a 24-well cell culture plate pre-coated with poly-D-lysine. 12 hours after culture, cytarabine was added to inhibit the growth of glial cells. On the 5th day of neuron growth, the toxin MPP+ can be added to make a PD cell model. When detecting the activity of a target compound, the target compound was pre-incubated with midbrain neurons for 3 h, then MPP+ was added, and after 48 h co-incubation the neuronal viability was detected by CCK-8 method and the neuronal survival rate was calculated to evaluate the inhibitory activity of the target compound on the midbrain neuronal PD damage. The experiment included blank control group, MPP+ model group, positive control group (caffeic acid phenethyl ester, CAPE), prototype control group (styryl sulfone compounds 3B, 3C, 3D, and 3G), and target compound group (prepared according to Examples 1-22 in the invention).

midbrain TH = test: Midbrain TH expression in MPTP Parkinson's disease model mouse (western-blotting); assay type: in vivo; details: midbrain total protein, GAPDH internal reference, gavage 21 days after MPTP modeling
Procedure: as §1
The main cause of PD lies in the pathological changes in the substantia nigra-striatum projection system of the brain and the progressive degeneration and loss of dopaminergic neurons. Tyrosine hydroxylase (TH) is the first enzyme in the biosynthesis of catecholamine neurotransmitters, as well as the first rate-limiting enzyme in the dopamine synthesis. It plays an important role in the synthesis and metabolism of the neurotransmitter DA. The TH in PD animal models and patients has a wide range of abnormal changes, from the gene expression to the enzyme protein content and enzyme activity. The detection of the TH expression in the midbrain and substantia nigra of PD model mice can be used to evaluate the neuroprotective activity of the compound.
as §2, with “TH” for “P-α-s protein expression”

midbrain CD11b = test: Midbrain CD11b protein expression in MPTP Parkinson's disease model mouse (western-blotting); assay type: in vivo; details: midbrain, MPTP Parkinson's disease model mouse, western-blotting
Procedure: as §1
(§3) Neuron-glial cell network homeostasis disorder is an important factor for the selective and progressive death of substantia nigra dopaminergic neurons in PD. In the neurotoxic effect of MPTP, the excessive activations of microglial cells and astrocytes produce a variety of inflammatory cytokines and reactive oxygen species (ROS). These inflammatory factors and ROS amplify their respective toxicities and mediate malignant feedback loop, causing a cascade inflammation response and aggravating the pathological process of PD. CD11b and GFAP are the marker proteins for activations of microglial cells and astrocytes, respectively. Therefore, the effect of the target compounds on the activations of the microglial cells and astrocytes in the substantia nigra, hippocampus, and midbrain areas of MPTP-induced PD mice can be investigated, to explore the mechanism of the anti-PD effect of the target compounds by inhibiting the neuroinflammation.
[…] The experiment included blank control group, MPTP model group, positive control group (caffeic acid phenethyl ester, CAPE), prototype control group (styryl sulfone compounds 3B, 3C, 3D), and 3G, whose structures are shown as above), and target compound group.

substantia nigra GFAP = test: Number of substantia nigra astrocytes with GFAP positive expression in MPTP Parkinson's disease model mouse (immunohistochemistry); assay type: in vivo; details: substantia nigra, MPTP Parkinson's disease model mouse, immunohistochemistry
Procedure: as §1, §3
Half of experiment mice in each group were taken to separate the midbrain after perfusion and fixation. The tissue was trimmed, and the substantia nigra area was taken to prepare paraffin sections. The GFAP immunohistochemical staining was performed for the statistics of the change in the number of astrocytes with GFAP positive expression. The experiment included blank control group, MPTP model group, positive control group (caffeic acid phenethyl ester, CAPE), prototype control group (styryl sulfone compounds 3B, 3C, 3D, and 3G, whose structures are shown as above), and target compound group.

[2] = 5 μM, 3 h pre-incubation, 48 h with MPP+
[3] = 10 μM, 3 h pre-incubation, 48 h with MPP+
[4] = 20 μM, 3 h pre-incubation, 48 h with MPP+

Row | SMILES | Expression (p-α-s/GAPDH) (midbrain p-α-s) | viability at 5 µM [1, 2] [%] | viability at 10 µM [1, 3] [%] | viability at 20 µM [1, 4] [%] | Expression (TH/GAPDH) (midbrain TH) | Expression (CD11b/GAPDH) (midbrain CD11b) | Positive cell number (astrocytes with GFAP positive expression) (substantia nigra GFAP) | viability at 5 µM ([1]; 48 h) [%] | viability at 10 µM ([1]; 48 h) [%] | viability at 20 µM ([1]; 48 h) [%]
1 | O=S(=O)(/C=C/c1ccc(O)c(O)c1)Cc1ccc(Cl)cc1 [Compound 3D, (E)-4-{2-[(4-chlorophenyl)mesyl]ethenyl}benzene-1,2-diol, reference compound] | 0.49 ± 0.12 | 69.5 ± 5.21 | 84.1 ± 1.87 | 91.5 ± 2.32 | 0.93 ± 0.06 | 1.30 ± 0.10 | 110 ± 9 | – | – | –
2 | O=S(=O)(/C=C/c1ccc(O)c(O)c1)CCCc1ccccc1 [Compound 3C, (E)-4-{2-[(3-phenylpropyl)sulfonyl]ethenyl}benzene-1,2-diol, reference compound] | 0.92 ± 0.13 | 61.3 ± 3.22 | 75.7 ± 1.98 | 74.2 ± 4.55 | 0.63 ± 0.03 | 1.02 ± 0.13 | 121 ± 13 | – | – | –
3 | C=CCOc1ccc(C/C=C/S(=O)(=O)/C=C/c2ccc(OC(C)=O)c(OC(=O)N(CC=C)CC=C)c2)cc1 [Compound K1-4, 4-{(E)-2-[(E)-3-(4-allyloxyphenyl)prop-1-en-1-yl]sulfonylethenyl}-2-(N,N-diallylcarbamoyloxy)phenyl acetate] | 0.45 ± 0.12 | 76.7 ± 3.17 | 87.1 ± 2.56 | 93.2 ± 1.81 | 0.74 ± 0.08 | 1.09 ± 0.10 | 112 ± 4 | – | – | –
4 | CCN(C)C(=O)Oc1ccc(/C=C/S(=O)(=O)CC(c2ccc(-c3ccc(OC)c(OC)c3)cc2)[N+](=O)[O-])cc1OC(=O)N(C)CC (stereo not drawn) [Compound M1-1, (E)-4-{2-[2-(3′,4′-dimethoxy-[1,1′-biphenyl]-4-yl)-2-nitroethylsulfonyl]ethenyl}-1,2-phenylenebis(N-ethyl-N-methylcarbamate)] | 0.27 ± 0.08 | – | – | – | 1.35 ± 0.04 | 0.46 ± 0.04 | 59 ± 3 | 82.4 ± 2.54 | 89.9 ± 3.67 | 95.1 ± 1.94
5 | COc1cc(/C=C/S(=O)(=O)Cc2cc(OC)c(OC)c(OC)c2)ccc1OC(=O)N(c1ccccc1)c1ccccc1 [Compound K3-3, (E)-2-methoxy-4-{2-[(3,4,5-trimethoxyphenyl)mesyl]ethenyl}-phenyl-N,N-diphenylcarbamate] | 0.62 ± 0.11 | 62.5 ± 3.58 | 75.5 ± 2.37 | 88.5 ± 1.73 | 1.15 ± 0.05 | 1.15 ± 0.07 | 96 ± 3 | – | – | –
6 | Cc1ccc(S(=O)(=O)Oc2ccc(CS(=O)(=O)/C=C/c3ccc(OS(=O)(=O)c4ccc(C)cc4)c(OC(=O)N(C)S(=O)(=O)c4ccc(C)cc4)c3)cc2)cc1 [Compound S6-6, (E)-2-(N-methyl-N-p-tosylcarbamoyloxy)-4-{2-[(4-p-tosyloxyphenyl)mesyl]ethenyl}phenyl p-toluenesulfonate] | 0.28 ± 0.06 | – | – | – | 1.07 ± 0.06 | 0.62 ± 0.04 | 78 ± 4 | 72 ± 2.47 | 83.2 ± 4.07 | 91.7 ± 3.18
7 | CCOC(CS(=O)(=O)/C=C/c1ccc(OC(C)=O)c(OC(=O)Nc2ccc(NC)cc2)c1)C(OCC)c1ccc(OCc2ccccc2)c(O)c1 (stereo not drawn) [Compound H2-4, (E)-4-{2-[3-(4-benzyloxy-3-hydroxyphenyl)-2,3-diethoxypropyl]sulfonylethenyl}-2-[N-(4-methylaminophenyl)carbamoyloxy]phenyl acetate] | 0.53 ± 0.13 | 69 ± 4.31 | 81.5 ± 3.24 | 89.4 ± 1.65 | 1.02 ± 0.04 | 0.69 ± 0.04 | 93 ± 6 | – | – | –
8 | COCCN(C)C(=O)Oc1cc(/C=C/S(=O)(=O)CCc2cccc(-c3ccc(C)o3)c2)ccc1OC(C)=O [Compound J1-4, (E)-2-[N-(2-methoxyethyl)-N-methylcarbamoyloxy]-4-{2-[3-(5-methylfur-2-yl)phenylethylsulfonyl]ethenyl}phenyl acetate] | 0.47 ± 0.11 | – | – | – | 0.89 ± 0.04 | 0.75 ± 0.06 | 77 ± 4 | 75.2 ± 3.29 | 84.8 ± 2.27 | 90.3 ± 2.6
9 | COc1ccc(CC(=O)Oc2ccc(C(N)CS(=O)(=O)/C=C/c3ccc(OC(C)(C)C)c(OC(=O)N(C)c4ccccc4)c3)cc2)cc1 (stereo not drawn) [Compound P1-3, (E)-4-{1-amino-2-[4-t-butoxy-3-(N-methyl-N-phenylcarbamoyloxy)styrylsulfonyl]ethyl}phenyl-2-(4-methoxyphenyl)acetate] | 0.31 ± 0.05 | – | – | – | 0.77 ± 0.03 | 1.09 ± 0.08 | 69 ± 5 | 71 ± 3.56 | 85.2 ± 2.94 | 93.7 ± 3.08
